Measured values taken from article PMC7917255 (Frontiers in Pharmacology, 2021).
Changes are numbered by the printed parent chain.

Key:
[1] = target: T1, ABCG2 (Homo sapiens, UniProt Q9UNQ0); test: biochemical
T1 construct: ABCG2 in insect cell membrane vesicles (total membranes)
T1 sequence (Q9UNQ0 1-655): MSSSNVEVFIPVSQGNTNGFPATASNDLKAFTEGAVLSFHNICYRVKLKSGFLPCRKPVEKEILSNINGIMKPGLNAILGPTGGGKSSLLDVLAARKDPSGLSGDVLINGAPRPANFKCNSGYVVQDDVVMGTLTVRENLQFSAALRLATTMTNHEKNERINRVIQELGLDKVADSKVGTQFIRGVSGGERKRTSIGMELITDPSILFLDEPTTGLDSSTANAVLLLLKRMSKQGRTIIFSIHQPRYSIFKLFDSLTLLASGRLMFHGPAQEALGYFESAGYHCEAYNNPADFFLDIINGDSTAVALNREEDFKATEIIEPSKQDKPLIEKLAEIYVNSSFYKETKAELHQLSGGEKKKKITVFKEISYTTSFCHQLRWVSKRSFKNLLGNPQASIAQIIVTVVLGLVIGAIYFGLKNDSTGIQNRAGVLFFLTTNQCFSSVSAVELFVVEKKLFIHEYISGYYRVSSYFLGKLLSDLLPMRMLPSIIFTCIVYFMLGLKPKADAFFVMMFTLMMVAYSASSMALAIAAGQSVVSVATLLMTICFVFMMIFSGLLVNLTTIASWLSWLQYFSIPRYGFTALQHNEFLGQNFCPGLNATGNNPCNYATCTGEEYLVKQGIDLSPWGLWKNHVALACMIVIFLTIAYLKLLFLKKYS

[2] = target: T2, ABCG2 (Homo sapiens, UniProt Q9UNQ0, R482T); test: tritium-labeled mitoxantrone accumulation in transfected cells
T2 sequence (Q9UNQ0 1-655 R482T): T1 sequence (Q9UNQ0 1-655) with R482T

| Compound | EC50 [1] | tritium-labeled mitoxantrone accumulation in transfected cells [2] |
| --- | --- | --- |
| Cc1cc(O)c(-c2ccc([C@@H](C)CN(C)C)cc2)c2c1[nH]c(=O)c1sccc12 [OTS964] | 140 nM | – |
| O=C1c2c(O)ccc(O)c2C(=O)c2c(NCCNCCO)ccc(NCCNCCO)c21 [mitoxantrone] | – | ABCG2-mediated efflux of mitoxantrone, which is an established substrate of ABCG2, in R482T-mutant-ABCG2-overexpressing cell line |
